Test results taken from patent publication US20230355558A1 (priority 2022, published 2023).

System: SARS-CoV-2
Type: cell-based

NCC1CCC(C(=O)[O][Ca][O]C(=O)C2CCC(CN)CC2)CC1 (stereo not shown) [Ca-TA, Calcium bis-tranexamate]
antiviral efficacy against SARS-CoV-2 infections and its emerging variants: desired antiviral efficacy
